Data on 34 molecules can be found in patent publication EP1724268A1, “COMPOUND HAVING TGF-BETA INHIBITORY ACTIVITY AND PHARMACEUTICAL COMPOSITION CONTAINING SAME” (KIRIN BEER KABUSHIKI KAISHA, priority 2004, dated 2005).

Where two headings read alike, the source gives them in different places.

The term inhibition denotes the drop in the measured response relative to a control, in per cent.

This assay relates to TGFβ signal. Nature of the assay: TGFβ signal inhibitory activity, (SBE)4-Luc reporter in A549 cells (Test Examples 1A and 1B). Type of assay: cell-based, human. To be noted: Homo sapiens, A549, read-out: TGFβ inhibition rate, %; for inhibition at 1 µM: test compound 1 µM. The essentials:
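Compounds at 3 µM and 10 µM (some 1 µM) were added with 2 ng/ml TGFβ-1 to A549 cells stably expressing an SBE-driven luciferase, then cultured 4 hr. Chemiluminescent luciferase signal gave % inhibition versus TGFβ-alone and no-TGFβ controls.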

Where [1] appears, read: 3 µM, compounds of Reference Examples (Test Example 1B).
The mark [2] stands for this setting: 10 µM, compounds of Reference Examples (Test Example 1B).
[3] abbreviates: test compound 3 µM, Reference Examples, Table 1B.
The mark [4] stands for this setting: test compound 10 µM, Reference Examples, Table 1B.
Setting [5] is: test compound 3 µM, TGFβ-1 2 ng/ml, 4 hr, Table 1A.
[6] abbreviates: test compound 10 µM, TGFβ-1 2 ng/ml, 4 hr, Table 1A.

For `COc1cc2nccc(Oc3cc4ccccc4nc3C(C)=O)c2cc1OC` [Compound r278, 1-[3-(6,7-Dimethoxy-quinolin-4-yloxy)-quinolin-2-yl]-ethanone], the inhibition at 3 µM under setting [1] was determined as 90%. In addition, the inhibition at 10 µM under setting [2] came to 99%.
Regarding `COc1cc2c(Oc3ccc(C)cc3C(=O)c3ccccc3)ccnc2cc1OCCCl` [r123], the inhibition at 3 µM under setting [3] turned out to be 98%. Further, the inhibition at 10 µM under setting [4] worked out at 100%.
With `CCc1nc2ncccc2cc1Oc1ccnc2cc(OC)c(F)cc12` [Compound 161, 2-Ethyl-3-(6-fluoro-7-methoxy-qulnolin-4-yloxy)-[1,8]naphthyridine], the inhibition at 3 µM under setting [5] is 68%. Moreover, under setting [6], the inhibition at 10 µM is 95%.
With `COc1cc2c(Oc3ccc(C)cc3C(=O)c3ccccc3)ccnc2cc1OCC(O)CNCCO` (stereo not drawn) [Compound r152], the inhibition at 3 µM under setting [3] came to 99%. Under setting [4], the inhibition at 10 µM stood at 100%.
For the molecule `COc1cc2ncnc(Oc3cc(C)c(C)nc3-c3ccc(C)cn3)c2cc1OC` [r437], under setting [1], the inhibition at 3 µM came out at 95%. Also, under setting [2], the inhibition at 10 µM turned out to be 100%.
Turning to `Cc1cc(Oc2ccnc3cc(-c4ccccc4)sc23)c(-c2ccccn2)nc1C` [Compound 29, 5,6-Dimethyl-3-(2-phenyl-thieno[3,2-b]pyridin-7-yloxy)-[2,2']bipyridine], the inhibition at 1 µM (TGFβ-1 2 ng/ml, 4 hr, Table 1A) is 89%. Under setting [5], the inhibition at 3 µM was found to be 100%.
For `COc1ccc2c(Oc3cc(C)c(C)nc3-c3ccccn3)ccnc2c1` [Compound 16, 3-(7-Methoxy-quinolin-4-yloxy)-5,6-dimethyl-[2,2']bipyridine] the same measures were 97% and 100%.
`Cc1cc(Oc2ccnc3ccc(C(F)(F)F)cc23)c(-c2ccccn2)nc1C` [Compound 3, 5,6-Dimethyl-3-(6-trifluoromethyl-quinolin-4-yloxy)-[2,2']bipyridine]: the inhibition at 1 µM (TGFβ-1 2 ng/ml, 4 hr, Table 1A) stood at 79%. In addition, the inhibition at 3 µM under setting [5] was found to be 99%.
For the molecule `COc1cc2nccc(Oc3cc(C)nc4ccccc34)c2cc1OC` [Compound r309], the inhibition at 3 µM under setting [1] came to 41%. Besides, the inhibition at 10 µM under setting [2] stood at 79%.
As to `Cc1cc(Oc2ccnc3ccc(-c4ncccn4)cc23)c(-c2ccccn2)nc1C` [Compound 175, 5,6-Dimethyl-3-(6-pyrimidin-2-yl-quinolin-4-yloxy)-[2,2']bipyridine], the inhibition at 3 µM under setting [5] stood at 97%. Besides, under setting [6], the inhibition at 10 µM is 100%.
On to `Cc1cc(Oc2ccnc3cc(-c4ccccc4)ccc23)c(-c2ccccn2)nc1C` [Compound 17, 5,6-Dimethyl-3-(7-phenyl-quinolin-4-yloxy)-[2,2']bipyridine], for which, under setting [5], the inhibition at 3 µM amounted to 98%. In addition, the inhibition at 10 µM under setting [6] was 100%.
With `COc1cc2c(Oc3ccc(C)nc3-c3nccs3)ccnc2cc1OCc1ccccc1` [Compound r328], the inhibition at 3 µM under setting [1] came out at 100%. For the same molecule, the inhibition at 10 µM under setting [2] was found to be 100%.
Consider `CC/C=C\CCOC(=O)c1ccccc1Oc1ccnc2cc(OC)c(OC)cc12` [Compound r100], for which the inhibition at 3 µM under setting [3] is 0%. Under setting [4], the inhibition at 10 µM came to 82%.
Take `COc1cc2nccc(Oc3ccc(C)nc3-c3cccc(C)n3)c2cc1OC` [Compound r264]: the inhibition at 3 µM under setting [1] came out at 88%. The inhibition at 10 µM under setting [2] is 100%.
For `COc1cc2c(Oc3cc4ccccc4nc3C)ccnc2cc1OCCN1CCC(C(N)=O)CC1` [Compound r362], in that order: 100% and 100%.
With `COc1cc2c(Oc3cc(C)c(C)nc3-c3ccccn3)ccnc2cc1OCC1CO1` (stereo not drawn) [Compound r341], the inhibition at 3 µM under setting [1] was determined as 99%.
Consider `COc1cc2nccc(Oc3ccc(C)nc3Cc3cccc(C)n3)c2cc1OC` [r215], for which the inhibition at 3 µM under setting [1] turned out to be 72%. For the same molecule, under setting [2], the inhibition at 10 µM turned out to be 99%.
Take `COc1cc2nccc(Oc3cc4ccccc4nc3-c3cc(C)c(Cl)s3)c2cc1OC` [r290]: the inhibition at 3 µM under setting [1] came to 18%. Further, under setting [2], the inhibition at 10 µM turned out to be 57%.
Regarding `CCc1ccc(Oc2ccnc3ccc(OCc4ccccc4)cc23)c(-c2ccccn2)n1` [Compound 183, 3-(6-Benzyloxy-quinolin-4-yloxy)-6-ethyl-[2,2']bipyridine], under setting [5], the inhibition at 3 µM worked out at 100%. Also, the inhibition at 10 µM under setting [6] was 100%.
For the molecule `COc1cc2nccc(Oc3ccc(C)cc3C(=O)c3ccc(C(C)(C)C)cc3)c2cc1OC` [r73], the inhibition at 3 µM under setting [3] was 24%. For the same molecule, under setting [4], the inhibition at 10 µM came to 81%.
As to `COC(=O)c1cc2ccccc2cc1Oc1ccnc2cc(OC)c(OC)cc12` [Compound r79, Methyl 3-[(6,7-Dimethoxy-4-quinolyl)oxy]naphthalene-2-carboxylate], under setting [3], the inhibition at 3 µM is 97%. Further, the inhibition at 10 µM under setting [4] came out at 100%.
Regarding `COC(=O)c1cc2c(Oc3cc4cccnc4nc3-c3ccccc3)ccnc2cc1OC` [Compound 63, Methyl 7-methoxy-4-(2-phenyl-[1,8]naphthyridin-3-yloxy)-quinoline-6-carboxylate], the inhibition at 3 µM under setting [5] was found to be 99%. The inhibition at 10 µM under setting [6] was 100%.
For `Cc1cc(Oc2ccnc3cc(Cl)ccc23)c(-c2ccccn2)nc1C` [Compound 13, 3-(7-Chloro-quinolin-4-yloxy)-5,6-dimethyl-[2,2']bipyridine] the same measures were 99% and 100%.
As for `Cc1cc(Oc2ccnc3cc(Cl)c(Cl)cc23)c(-c2ccccn2)nc1C` [Compound 131, 3-(6,7-Dichloro-quinolin-4-yloxy)-5,6-dimethyl-[2,2']bipyridine], the inhibition at 3 µM under setting [5] came to 99%. Moreover, under setting [6], the inhibition at 10 µM was 100%.
Consider `CCCOC(=O)c1cc(-c2ccc(F)cc2F)ccc1Oc1ccnc2cc(OC)c(OC)cc12` [Compound r96], for which, under setting [3], the inhibition at 3 µM came to 19%. Besides, under setting [4], the inhibition at 10 µM was 65%.
For `COc1cc2nccc(Oc3ccc(C)c(C)c3)c2cc1OC` [r15] the same measures were 41% and 84%.
Turning to `COc1ccc(Oc2ccnc3cc(O)c(OC)cc23)c(C(C)=O)c1` [r312], the inhibition at 3 µM under setting [1] stood at 50%. The inhibition at 10 µM under setting [2] stood at 76%.
For `COc1cc2c(Oc3cc(C)c(C)cc3C(C)=O)ccnc2cc1O` [Compound r314], in that order: 50% and 89%.
For `COc1cc2nccc(Oc3cc4ccncc4cc3-c3cccnc3)c2cc1OC` [r304] the same measures were 26% and 64%.
Consider `COc1cc2c(Oc3cc4ccccc4nc3C)ccnc2cc1CCCN1CCOCC1` [Compound r412], for which the inhibition at 3 µM under setting [1] came to 77%. Also, under setting [2], the inhibition at 10 µM is 99%.
For `COc1cc2c(Oc3cc(C)c(C)nc3-c3cccc(C)n3)ccnc2cc1OCc1ccccc1` [Compound r442], in that order: 70% and 100%.
Take `COc1cc2nccc(Oc3cc4cccnc4nc3-c3ccccc3)c2cc1F` [Compound 59, 3-(6-Fluoro-7-methoxy-quinolin-4-yloxy)-2-phenyl-[1,8]naphthyridine]: the inhibition at 1 µM (TGFβ-1 2 ng/ml, 4 hr, Table 1A) was determined as 93%.
Turning to `COc1cc2nccc(Oc3ccc4ccccc4c3C=O)c2cc1OC` [Compound r27], the inhibition at 3 µM under setting [3] was 0%. Further, under setting [4], the inhibition at 10 µM stood at 93%.
As for `COc1cc2nccc(Oc3cc4ccncc4nc3-c3ccccc3)c2cc1OC` [Compound 98, 3-(6,7-Dimethoxy-quinolin-4-yloxy)-2-phenyl-[1,7]naphthyridine], the inhibition at 3 µM under setting [5] was determined as 94%. Under setting [6], the inhibition at 10 µM was 100%.
